≈ marks a conversion by molar mass, not a printed value.
Assays:
[1] = tested on: Staphylococcus aureus (BCM-012); assay: Antimicrobial activity, microdilution in microtiter plate (MIC); assay type: cell-based; details: Staphylococcus aureus BCM-012 (SALVAT collection); two-fold serial dilutions, 96 well plates; incubation 24 h at 35° C.
Experimental: (§1) In order to assess the antimicrobial activity of the compounds of the present invention a method of microdilution in microtiter plate was used. The compounds were diluted in a nutritious medium and, subsequently, distributed by two-fold serial dilutions in 96 well plates. Then, plates were inoculated with a bacterial suspension. After incubation for 24 h at 35° C. the minimum inhibitory concentration (MIC) of the drug in μg/mL was determined as the lowest concentration of compound which inhibits the growth of the bacterium. Results included in table 7 illustrate the antimicrobial activity of some of the compounds of the present invention in comparison with thus obtained with two compounds (linezolid and eperezolid) of a known antimicrobial activity. The antimicrobial activity of the compound versus Streptococcus faecalis (BCM-010, strain designation as for SALVAT collection) and Staphylococcus aureus (BCM-012, strain designation as for SALVAT collection), respectively, is shown in the different columns.

[2] = tested on: Streptococcus faecalis (BCM-010); assay: as above; assay type: cell-based; details: Streptococcus faecalis BCM-010 (SALVAT collection), two-fold serial dilutions, 96 well plates, incubation 24 h at 35° C.; for MIC: Enterococcus faecalis
Experimental: as §1

BCM-012 MIC [1] | BCM-010 MIC [2] | MIC [1] | MIC [2] | Compound
1 µg/mL | 2 µg/mL | – | – | O=CNCC(=O)N1CCN(c2ccc(-c3cc(CNc4ccon4)on3)cc2F)CC1 [I_1]
2 µg/mL | 1 µg/mL | – | – | C[C@@H](NC(=O)c1ncccc1N)C(=O)N1CCN(c2ccc(-c3cc(CNc4ccon4)on3)cc2F)CC1 [I_171]
0.25 to 0.5 µg/mL | 0.25 to 0.5 µg/mL | – | – | Nc1ccc(C(=O)NCC(=O)N2CCN(c3ccc(-c4cc(CNc5ccon5)on4)cc3F)CC2)c(O)c1 [I_32]
1 µg/mL | 1 µg/mL | – | – | CC(=O)Nc1ccc(C(=O)NCC(=O)N2CCN(c3ccc(-c4cc(CNc5ccon5)on4)cc3F)CC2)cn1 [I_117]
– | – | 2 µg/mL (≈ 5.07 µM) | 4 µg/mL (≈ 10.1 µM) | CC(=O)NC[C@H]1CN(c2ccc(N3CCN(C(=O)CO)CC3)c(F)c2)C(=O)O1 [Eperezolid, eperezolid, reference compound]
0.25 µg/mL | 0.5 to 1 µg/mL | – | – | O=C(NCC(=O)N1CCN(c2ccc(-c3cc(CNc4ccon4)on3)cc2F)CC1)c1ccc([N+](=O)[O-])o1 [I_58]
4 µg/mL | 4 µg/mL | – | – | Cc1ccc(C(=O)N[C@H](C(=O)N2CCN(c3ccc(-c4cc(CNc5ccon5)on4)cc3F)CC2)C(C)C)cn1 [I_170]
2 µg/mL | 2 µg/mL | – | – | O=C(NC(C(=O)N1CCN(c2ccc(-c3cc(CNc4ccon4)on3)cc2F)CC1)c1ccccc1)c1ccc2[nH]cnc2c1 (centres unmarked) [I_153]
– | – | 2 µg/mL (≈ 5.93 µM) | 4 µg/mL (≈ 11.9 µM) | CC(=O)NC[C@H]1CN(c2ccc(N3CCOCC3)c(F)c2)C(=O)O1 [Linezolid, linezolid, reference compound]
2 µg/mL | 2 µg/mL | – | – | CN(CC(=O)N1CCN(c2ccc(-c3cc(CNc4ccon4)on3)cc2F)CC1)C(=O)c1ccc2[nH]cnc2c1 [I_155]
2 µg/mL | 2 µg/mL | – | – | CNCC(=O)NCC(=O)N1CCN(c2ccc(-c3cc(CNc4ccon4)on3)cc2F)CC1 [I_152]
0.25 to 0.5 µg/mL | 0.25 to 0.5 µg/mL | – | – | O=C(NCC(=O)N1CCN(c2ccc(-c3cc(CNc4ccon4)on3)cc2F)CC1)c1cccc(O)c1 [I_15]
1 µg/mL | 2 µg/mL | – | – | C#CCn1c(C)nc2cc(C(=O)NCC(=O)N3CCN(c4ccc(-c5cc(CNc6ccon6)on5)cc4F)CC3)ccc21 [I_84]
0.5 µg/mL | 0.5 µg/mL | – | – | O=C(NCC(=O)N1CCN(c2ccc(-c3cc(CO)on3)cc2F)CC1)c1ccc2cccc(O)c2n1 [I_192]
0.25 µg/mL | 0.25 µg/mL | – | – | O=C(NCC(=O)N1CCN(c2c(F)cc(-c3cc(CNc4ccon4)on3)cc2F)CC1)c1ccc2cccc(O)c2n1 [I_160]
– | – | 1 µg/mL (≈ 1.77 µM) | 2 µg/mL (≈ 3.54 µM) | O=C(NCC(=O)N1CCN(c2ccc(-c3cc(CNc4ccon4)on3)cc2F)CC1)Nc1ccc([N+](=O)[O-])cc1 [Ia_1, 1-[2-(4-{2-Fluoro-4-[5-(isoxazol-3-ylaminomethyl)isoxazol-3-yl]phenyl}piperazin-1-yl)-2-oxoethyl]-3-(4-nitrophenyl)urea]
2 µg/mL | 2 µg/mL | – | – | Cc1nc2cc(C(=O)NCC(=O)N3CCN(c4ccc(-c5cc(CNc6ccon6)on5)cc4F)CC3)ccc2n1CC1CC1 [I_82]
1 µg/mL | 1 µg/mL | – | – | Cc1ccc(C(=O)N[C@@H](C)C(=O)N2CCN(c3ccc(-c4cc(CO)on4)cc3F)CC2)cn1 [I_213]
1 µg/mL | 1 µg/mL | – | – | Cc1ncc(-c2cccc(C(=O)NCC(=O)N3CCN(c4ccc(-c5cc(CNc6ccon6)on5)cc4F)CC3)c2)s1 [I_51]

Reference: US20100075984A1, “DICARBONYLIC COMPOUNDS WITH ANTIBACTERIAL ACTIVITY” (LABORATORIOS SALVAT, S.A., priority 2006, published 2010)
